US20150291507A1, “PANTHENYL DOCOSAHEXAENEOATE AND ITS USE FOR TREATING AND PREVENTING CARDIOVASCULAR DISEASES” (PIERRE FABRE MEDICAMENT, priority 2010, published 2015)

Tested on: atrial refractory period
Experiment: Atrial refractory period in the anesthetized pig (electrical stimulation S1/S2, left atrium)
Assay type: in vivo, pig (male Landrace)
Description: The study was carried out on male Landrace pigs (20-25 kg). Anesthesia was maintained with isoflurane (0.5-3% of lung tidal volume). Number of respirations and tidal volume were adjusted so as to maintain blood gases within physiological limits. A left lateral thoracotomy was performed in the fourth intercostal space and the pericardium was opened. Polyethylene-filled catheters were introduced into the nearest thoracic artery to measure arterial pressure during the experiment and in the left saphenous vein to administer the active products or a control carrier. An atrial electrocardiogram (ECG) was continuously recorded, with three electrodes placed and sutured in the epicardium and the fourth serving as mass and placed in the thoracic muscles. Thus, the ECG provides information on atrial activity. Two bipolar electrodes were also placed in the left atrium at an interval of 0.3 cm and were maintained by fishing hooks. Electrical stimulations were carried out by a stimulator (DS 8000, WPI). […] The panthenyl docosahexaenoate of formula A (quantity: 10+10 mg/kg, n=4) was administered in the form of a bolus over 1 minute and then allowed to diffuse for 40 minutes. […]

## CC/C=C\C/C=C\C/C=C\C/C=C\C/C=C\C/C=C\CCC(=O)OCCCNC(=O)C(O)C(C)(C)CO (stereo in doubt) [panthenyl docosahexaenoate of formula A, 3-[(2R)-2,4-dihydroxy-3,3-dimethylbutanamido]propyl(4Z,7Z,10Z,13Z,16Z,19Z)-docosa-4,7,10,13,16,19-hexaenoate]
Intravenous 10 mg/kg + 10 mg/kg (bolus over 1 minute, then 40 minutes), anesthetized male Landrace pigs, n=4, p<0.001, placebo -4±3 ms
  increase in atrial refractory periods (ARPs): 19 ± 2 ms
Same formulation and administration, anesthetized pigs, FIG. 1
  activity on atrial refractory period compared with the panthenol diester: significantly more active than the panthenol diester
